Measurements from article PMC12250347, “Calcium-dependent pathway as a primary cause of hypoxic RGC damage in monkey retinal explants” (PLOS One, 2025).
“Also recorded” adds a separate entry of the source.

Assays:
[1] = tested on: purified porcine calpain 2; test: Calpain-Glo Protease Assay; format: biochemical; details: 5 mM CaCl2, 10 min, room temperature; mean of two experiments
From the text: The porcine kidney was obtained from DART Co., Ltd. as part of a program aimed at the effective utilization of livestock by-products in Hokkaido, Japan. The procurement process followed ethical guidelines from Livestock Industry Bureau MAFF-J (ministry of agriculture, forestry and fisheries of Japan) for farm animal use, ensuring compliance with relevant regulations. Two porcine kidneys were rapidly frozen after removal, trimmed free of excess tissue or renal pelvis, and cut into small pieces (approximately 2 × 2 cm) before they thawed. About 250 g of these pieces were homogenized in 1200 mL of ice-cold 20 mM Tris-HCl (pH 8.0) with 5 mM ethylenediaminetetraacetic acid (EDTA), 0.1% 2-mercaptoethanol (2-ME), 0.1 mg/mL Pefabloc SC (MilliporeSigma, Burlington, MA, USA), 40 µg/mL bestatin, and 4 µg/mL pepstatin in a Waring blender HGBSS (Waring; Stamford, CT, USA) at 19,000 rpm using several bursts of 10 sec each with 20 sec cooling periods between each burst. The homogenate was centrifuged at 25,000 × g for 15 min at 4°C, and the supernatant was filtered through glass wool and a 5 µm filter (Merck) to remove floating lipids. The purification procedure was performed according to the method of Thompson and Goll with some minor modifications: the DEAE-cellulose and the DEAE-TSK ToyoPearl 650S columns were substituted with DEAE sepharose fast flow (Merck) and TSKgel DEAE-5PW (30) (Tosoh; Tokyo, Japan) columns, respectively. After purification, calpain-2 was dialyzed, and glycerol was added for freeze-thaw protection. The final buffer formulation was 20 mM imidazole, 5 mM 2-ME, 1 mM EDTA, 1 mM EGTA, and 20% glycerol.
For measurement of inhibitory activities against calpains in vitro, Calpain-Glo Protease Assay (Promega; Madison, WI, USA) was performed using human erythrocyte calpain 1 (MilliporeSigma) and purified porcine calpain 2. Briefly, 24 µL of each calpain diluted with 20 mM Tris-HCl (pH 7.4), 1 µL of each inhibitor, and 25 µL of reaction buffer including CaCl2 in a 96-well plate was incubated for 10 min at room temperature. The final concentration of CaCl2 in the reaction solution was 5 mM. The luminescence was measured using a microplate reader (GloMax Discover System; Promega). IC50 values from two independent experiments were averaged.

[2] = tested on: calpain 1 activation and proteolysis of α-spectrin; test: Immunoblotting of retinal explants under hypoxia/reoxygenation; format: cell-based, rhesus macaques (Macaca mulatta); details: H16R8
Protocol: Retina explant culture was performed as described in our previous report, except for the induction of hypoxia. Briefly, a hypoxic chamber (Coy Laboratory Products, Grass Lake, MI, USA) was controlled at 0.3% oxygen with a 95% N2/5% CO2 gas mixture. Retinas were dissected into fan-shaped explants with 6 or 7 petals (> 5 mm) in HBSS. Each explant was placed with the RGC side facing up on a Millicell organotypic standing insert (0.4 μm, 30 mm diameter, MilliporeSigma) in six-well, culture plates. They were cultured for 2 hr at 37°C under 95% N2/5% CO2 in Neurobasal-A medium supplemented with B27, N2 supplements, 2 mM L-glutamine (Thermo Fisher Scientific, Waltham, MA, USA), and 100 μg/mL primocin (Invivogen, San Diego, CA, USA). Retinal explants were then chamber-cultured under hypoxic conditions for 16 hr in a culture medium with 0.5 mM glucose, under 0.3% oxygen. The retinas were then re-oxygenated for 8 hr in a culture medium with 5.5 mM glucose. Normoxic control retinas were cultured for 24 hr in a culture medium with 5.5 mM glucose. When present, calpain inhibitors (SNJ-1945, PD-151746, C2I, and ABT-957) and cathepsin inhibitors (Odanacatib and SID26681509) in 0.1% DMSO were used at the final concentration of 10 or 100 μM in the medium. BAPTA (Thermo Fisher Scientific) and BAPTA-AM (Thermo Fisher Scientific) were also used at a final concentration of 3 or 10 mM or a final concentration of 100 or 500 μM, respectively.
All inhibitors and BAPTA were treated simultaneously with hypoxia induction, and BAPTA-AM treatment was 2 hr before hypoxia induction.
Each retinal explant was sonicated in RIPA Lysis and Extraction Buffer (Thermo Fisher Scientific), with protease inhibitors cocktail (Complete Mini-EDTA-free; MilliporeSigma). Protein concentrations in lysates were measured by BCA assay (Pierce BCA Protein Assay Kit, Thermo Fisher Scientific) using bovine serum albumin as a standard. For immunoblotting, 5 μg of each sample was loaded and run on 4% to 12% gradient or 10% SDS-PAGE gels (NuPAGE Bis-Tris Protein Gels, Thermo Fisher Scientific) with 2-(N-morpholino)ethanesulfonic acid buffer or 3-(N-morpholino) propanesulfonic acid buffer (Thermo Fisher Scientific). Proteins were then electrotransferred to a polyvinylidene fluoride membrane (MilliporeSigma) at 100 V for 60 min or 1.5 hr. Membranes were then blocked with 5% skim milk in Tris-buffer saline (Bio-Rad Laboratories, Hercules, CA, USA) containing 0.05% Tween 20. Each membrane was probed with primary antibodies against α-spectrin (1:2000 dilution, Enzo Life Sciences, Farmingdale, NY, USA), SBDP150 (1:1000 dilution, Senju Pharmaceutical), calpain 1 (1:1000 dilution, Thermo Fisher Scientific), calpain 2 (1:500, GeneTex, Irvine, CA, USA), cathepsin K (1:500 dilution, Abcam), and β-actin (1:1000 dilution, Merck). For calpain 1, immunoreactivity was visualized using a secondary antibody conjugated to alkaline phosphatase and the AP Conjugate Substrate Kit (Bio-Rad Laboratories). For other proteins, immunoreactivities were visualized using secondary antibodies conjugated with rabbit (Santa Cruz Biotechnology) or mouse horseradish peroxidase enzyme (Cytiva, Wilmington, DE, USA) and ECL Plus detection reagents (Cytiva). Images of the membranes were captured with FluorChem FC2 imager (Cell Biosciences, Santa Clara, CA, USA). The conversion of pro-cathepsin K (38 kDa) to its mature form (27 kDa) was used as an indicator of cathepsin K activation.

[3] = cathepsin inhibitor at 10 or 100 µM

Structure (SMILES): CC(C)(F)C[C@H](N[C@@H](c1ccc(-c2ccc(S(C)(=O)=O)cc2)cc1)C(F)(F)F)C(=O)NC1(C#N)CC1 [Odanacatib]
- IC50 Porcine Calpain 2 [1]: No effect
- Effect on activation of calpain 1 and proteolysis of α-spectrin (immunoblot) [2, 3]: did not mitigate

Structure (SMILES): CCc1ccccc1NC(=O)CSC(=O)NNC(=O)[C@H](Cc1c[nH]c2ccccc12)NC(=O)OC(C)(C)C [SID26681509]
- IC50 [1]: 93.2 µM
- Effect on activation of calpain 1 and proteolysis of α-spectrin (immunoblot) [2, 3]: did not mitigate

Structure (SMILES): COCCOCCOC(=O)N[C@@H](CC(C)C)C(=O)N[C@@H](Cc1ccccc1)C(=O)C(=O)NC1CC1 [SNJ-1945]
- IC50 [1]: 0.072 µM
- Effect on activation of calpain 1 and proteolysis of α-spectrin (immunoblot) ([2]; calpain inhibitors (SNJ-1945 100 µM)): effectively ameliorated; also recorded: inhibited the autolytic activation of calpain 1; also recorded: nearly completely inhibited calpain-induced proteolysis
